Experimental data from patent publication US9504756B2, “Self-stabilizing linker conjugates” (priority 2012, dated 2016).

Experiment: Thiosuccinimide ring hydrolysis of IgG1 conjugates monitored by electrospray mass spectrometry
Assay type: physicochemical
Settings: conjugated to reduced human IgG1; pH 7.4, 22° C.
From the text: The hydrolysis reaction rates of maleimido drug linkers following conjugation to antibody cysteines can be determined by mass spectrometry, as the hydrolyzed product has a molecular weight 18 daltons greater than the unhydrolyzed conjugate. Reduction of the interchain disulfides of a human IgG1 creates a single reduced cysteine on the light chain and three reduced cysteines on the heavy chain. The self-stabilizing maleimide drug-linker can then be conjugated to the reduced antibody at pH 7.4 and 22° C. and introduced to a high-resolution electrospray mass spectrometer via a reversed-phase HPLC column which separates the conjugated light and heavy chains. The masses of the conjugated light and heavy chains can thus be measured, and the peak intensities determined by standard mass spectrometry data processing software (e.g., MassLynx). By performing a series of injections over time, the disappearance of the peak corresponding to the mass of the original, unhydrolyzed conjugate and the appearance of the peak corresponding to the mass of the hydrolyzed conjugate can be monitored, the intensities of the peaks determined, and the percentage of hydrolyzed conjugate calculated at each timepoint. By plotting the hydrolysis percentage versus time, a curve is generated (e.g., using PRISM) which can be fit to a standard equation for exponential phenomena which includes a parameter for t1/2. […]

diaminopropionyl maleimide
time for hydrolysis reaction approaching 100% completion: about 2 hours
